The target in one test is EGFR Del19/T790M/C797S (Homo sapiens, UniProt P00533, C797S/DEL746-750/T790M). The test is described as follows: Biochemical EGFR kinase inhibition assay (Lance Ultra TR-FRET), triple mutant del19/T790M/C797S. The procedure:
(§1) Biochemical EGFR kinase assays were conducted using Lance Ultra time-resolved fluorescence resonance energy transfer (TR-FRET) technology from Perkin-Elmer. Compounds of the invention were initially diluted to 20 mM in 100% DMSO for storage and made into kinase buffer solution to create a compound concentration ranging from 0.003 μM and 10 μM.
(§2) Each kinase reactions were incubated at room temperature for 1 hour and then stopped by the addition of 4 μL of stop solution (10 mM EDTA). The specific Europium-labeled-anti-phosphopeptide antibody (PerkinElmer, AD0069) diluted in LANCE detection buffer was then added to a final concentration of 2 nM. After 60 minutes incubation at room temperature the LANCE signal was measured on an EnVision Multilabel Reader (Perkin-Elmer). Excitation wavelength was set at 320 nm and emission monitored at 615 nm (donor) and 665 nm (acceptor). The IC50 values were determined using GraphPad prism software (GraphPad Software, Inc., San Diego, CA, USA).
For orientation: TR-FRET usually uses a lanthanide donor and a delayed reading to cut background.

The target in the next test is EGFR wildtype (WT) (Homo sapiens, UniProt P00533). The test is described as follows: Biochemical EGFR kinase inhibition assay (Lance Ultra TR-FRET), wildtype. The procedure:
as §1, §2

The next test has as its target EGFR Del19/C797S (Homo sapiens, UniProt P00533, C797S/DEL746-750). The test is described as follows: Biochemical EGFR kinase inhibition assay (Lance Ultra TR-FRET), double mutant del19/C797S. The method, then:
as §1, §2

The next test concerns the target EGFR L858R/T790M/C797S (Homo sapiens, UniProt P00533, C797S/L858R/T790M). In words: Biochemical EGFR kinase inhibition assay (Lance Ultra TR-FRET), triple mutant L858R/T790M/C797S. The method, then:
as §1, §2

[1] abbreviates: ATP at Km, read-out: IC50 Del19/T790M/C797S (nM), Km ATP.
Setting [2] is: ATP at Km, read-out: IC50 WT (nM), Km ATP.
The mark [3] stands for this setting: IC50 Del19/C797S (nM), 100 μM ATP.
Where [4] appears, read: IC50 Del19/T790M/C797S (nM), 100 μM ATP.
Setting [5] is: IC50 L858R/T790M/C797S (nM), 100 μM ATP.
[6] abbreviates: ATP at Km, read-out: IC50 Del19/C797S (nM), Km ATP.
The mark [7] stands for this setting: Km ATP, read-out: IC50 Del19/T790M/C797S (nM) Km ATP.
Where [8] appears, read: Km ATP, read-out: IC50 L858R/T790M/C797S (nM) Km ATP.
Setting [9] is: Km ATP, read-out: IC50 WT (nM) Km ATP.
The mark [10] stands for this setting: Km ATP, read-out: IC50 Del19/C797S (nM) Km ATP.

Where two headings read alike, the source gives them in different places. Bounds are passed on as bounds.

Chain of EGFR L858R/T790M/C797S (P00533 25-1210 T790M/C797S/L858R): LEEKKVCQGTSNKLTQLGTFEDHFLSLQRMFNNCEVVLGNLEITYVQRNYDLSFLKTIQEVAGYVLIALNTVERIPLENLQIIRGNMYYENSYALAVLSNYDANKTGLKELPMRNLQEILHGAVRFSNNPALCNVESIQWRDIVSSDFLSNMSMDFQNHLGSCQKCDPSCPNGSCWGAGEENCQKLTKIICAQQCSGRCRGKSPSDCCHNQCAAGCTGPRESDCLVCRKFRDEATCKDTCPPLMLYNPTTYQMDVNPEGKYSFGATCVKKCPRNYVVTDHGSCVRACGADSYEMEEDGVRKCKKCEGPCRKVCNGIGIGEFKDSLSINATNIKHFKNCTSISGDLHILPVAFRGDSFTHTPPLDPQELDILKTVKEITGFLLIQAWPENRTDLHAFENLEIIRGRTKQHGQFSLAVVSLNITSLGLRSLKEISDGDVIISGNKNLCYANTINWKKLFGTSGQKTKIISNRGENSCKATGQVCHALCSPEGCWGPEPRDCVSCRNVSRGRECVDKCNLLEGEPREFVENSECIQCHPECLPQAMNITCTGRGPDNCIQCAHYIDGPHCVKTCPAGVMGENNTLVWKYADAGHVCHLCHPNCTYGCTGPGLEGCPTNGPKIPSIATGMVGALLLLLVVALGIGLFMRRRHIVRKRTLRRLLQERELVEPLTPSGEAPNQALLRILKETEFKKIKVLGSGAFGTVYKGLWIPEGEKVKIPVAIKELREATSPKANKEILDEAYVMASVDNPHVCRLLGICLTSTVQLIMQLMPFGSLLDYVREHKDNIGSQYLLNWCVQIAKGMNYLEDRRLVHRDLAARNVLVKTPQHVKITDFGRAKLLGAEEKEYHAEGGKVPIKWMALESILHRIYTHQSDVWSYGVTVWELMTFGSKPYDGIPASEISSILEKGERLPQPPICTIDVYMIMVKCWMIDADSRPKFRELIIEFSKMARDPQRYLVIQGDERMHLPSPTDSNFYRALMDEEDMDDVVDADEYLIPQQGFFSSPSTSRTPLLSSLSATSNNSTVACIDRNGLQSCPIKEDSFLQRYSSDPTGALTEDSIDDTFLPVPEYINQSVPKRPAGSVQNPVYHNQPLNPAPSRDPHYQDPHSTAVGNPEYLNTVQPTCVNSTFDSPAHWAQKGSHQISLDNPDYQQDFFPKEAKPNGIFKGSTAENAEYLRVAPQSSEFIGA
Chain of EGFR wildtype (WT) (P00533 25-1210): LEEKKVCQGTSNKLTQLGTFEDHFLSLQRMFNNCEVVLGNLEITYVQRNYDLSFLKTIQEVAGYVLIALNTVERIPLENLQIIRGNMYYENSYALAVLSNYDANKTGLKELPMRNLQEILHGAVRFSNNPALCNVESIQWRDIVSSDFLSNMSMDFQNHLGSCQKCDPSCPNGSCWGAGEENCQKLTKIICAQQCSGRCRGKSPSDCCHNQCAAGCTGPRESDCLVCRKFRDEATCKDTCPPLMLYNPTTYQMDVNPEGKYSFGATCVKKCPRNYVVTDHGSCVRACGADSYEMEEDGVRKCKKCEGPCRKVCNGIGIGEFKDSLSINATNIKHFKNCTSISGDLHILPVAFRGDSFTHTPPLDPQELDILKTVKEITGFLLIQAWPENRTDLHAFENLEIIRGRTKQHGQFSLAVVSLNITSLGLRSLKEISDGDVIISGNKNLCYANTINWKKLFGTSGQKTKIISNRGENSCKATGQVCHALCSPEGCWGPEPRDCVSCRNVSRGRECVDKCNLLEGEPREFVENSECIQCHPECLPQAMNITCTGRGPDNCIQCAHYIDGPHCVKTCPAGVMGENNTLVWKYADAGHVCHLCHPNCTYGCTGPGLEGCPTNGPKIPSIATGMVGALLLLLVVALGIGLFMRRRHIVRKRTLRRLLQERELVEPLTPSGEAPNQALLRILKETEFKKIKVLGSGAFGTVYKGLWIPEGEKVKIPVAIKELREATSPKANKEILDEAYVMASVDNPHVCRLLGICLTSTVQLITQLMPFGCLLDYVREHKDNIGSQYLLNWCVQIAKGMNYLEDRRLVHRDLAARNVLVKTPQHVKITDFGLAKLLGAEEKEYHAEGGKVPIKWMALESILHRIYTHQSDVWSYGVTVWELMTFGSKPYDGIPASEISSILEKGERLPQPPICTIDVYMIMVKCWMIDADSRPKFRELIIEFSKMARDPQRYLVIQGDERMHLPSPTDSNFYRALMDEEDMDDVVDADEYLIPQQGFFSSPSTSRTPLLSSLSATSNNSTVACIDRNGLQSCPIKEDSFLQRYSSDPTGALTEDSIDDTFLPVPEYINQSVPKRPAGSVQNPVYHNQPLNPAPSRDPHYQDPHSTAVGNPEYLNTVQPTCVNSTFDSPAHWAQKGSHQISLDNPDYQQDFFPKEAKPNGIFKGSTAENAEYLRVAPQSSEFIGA
Chain of EGFR Del19/C797S (P00533 with tags, fused parts or gaps DEL746-750/C797S): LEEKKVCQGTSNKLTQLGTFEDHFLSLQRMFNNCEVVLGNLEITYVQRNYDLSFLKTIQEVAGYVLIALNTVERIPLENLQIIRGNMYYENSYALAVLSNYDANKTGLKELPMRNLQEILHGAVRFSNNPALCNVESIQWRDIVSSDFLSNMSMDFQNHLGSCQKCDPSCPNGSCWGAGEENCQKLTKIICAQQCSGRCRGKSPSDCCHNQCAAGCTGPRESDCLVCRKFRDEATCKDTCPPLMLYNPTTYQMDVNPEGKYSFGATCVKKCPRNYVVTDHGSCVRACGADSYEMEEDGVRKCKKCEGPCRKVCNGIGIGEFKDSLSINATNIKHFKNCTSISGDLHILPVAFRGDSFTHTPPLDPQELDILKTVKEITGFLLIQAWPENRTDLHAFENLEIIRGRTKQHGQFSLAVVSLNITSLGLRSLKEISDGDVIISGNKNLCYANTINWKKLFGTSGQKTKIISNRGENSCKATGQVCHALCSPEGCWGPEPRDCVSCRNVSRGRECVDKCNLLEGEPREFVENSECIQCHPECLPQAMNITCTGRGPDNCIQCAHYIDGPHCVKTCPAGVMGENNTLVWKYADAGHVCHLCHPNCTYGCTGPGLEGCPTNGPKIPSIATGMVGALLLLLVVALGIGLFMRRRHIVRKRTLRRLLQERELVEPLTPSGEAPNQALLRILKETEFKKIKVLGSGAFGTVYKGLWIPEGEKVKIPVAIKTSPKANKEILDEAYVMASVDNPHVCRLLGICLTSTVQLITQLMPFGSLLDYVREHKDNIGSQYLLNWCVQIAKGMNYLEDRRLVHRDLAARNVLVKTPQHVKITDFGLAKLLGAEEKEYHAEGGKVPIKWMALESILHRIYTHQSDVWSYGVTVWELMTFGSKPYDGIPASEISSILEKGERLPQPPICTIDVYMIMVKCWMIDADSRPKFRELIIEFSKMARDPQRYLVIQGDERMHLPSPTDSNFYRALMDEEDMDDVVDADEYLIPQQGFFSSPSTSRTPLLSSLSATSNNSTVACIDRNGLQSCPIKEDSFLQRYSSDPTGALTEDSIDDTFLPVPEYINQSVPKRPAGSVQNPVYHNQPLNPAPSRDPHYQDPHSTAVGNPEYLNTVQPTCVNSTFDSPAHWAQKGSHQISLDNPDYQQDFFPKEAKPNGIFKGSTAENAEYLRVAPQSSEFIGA
Chain of EGFR Del19/T790M/C797S (P00533 with tags, fused parts or gaps DEL746-750/T790M/C797S): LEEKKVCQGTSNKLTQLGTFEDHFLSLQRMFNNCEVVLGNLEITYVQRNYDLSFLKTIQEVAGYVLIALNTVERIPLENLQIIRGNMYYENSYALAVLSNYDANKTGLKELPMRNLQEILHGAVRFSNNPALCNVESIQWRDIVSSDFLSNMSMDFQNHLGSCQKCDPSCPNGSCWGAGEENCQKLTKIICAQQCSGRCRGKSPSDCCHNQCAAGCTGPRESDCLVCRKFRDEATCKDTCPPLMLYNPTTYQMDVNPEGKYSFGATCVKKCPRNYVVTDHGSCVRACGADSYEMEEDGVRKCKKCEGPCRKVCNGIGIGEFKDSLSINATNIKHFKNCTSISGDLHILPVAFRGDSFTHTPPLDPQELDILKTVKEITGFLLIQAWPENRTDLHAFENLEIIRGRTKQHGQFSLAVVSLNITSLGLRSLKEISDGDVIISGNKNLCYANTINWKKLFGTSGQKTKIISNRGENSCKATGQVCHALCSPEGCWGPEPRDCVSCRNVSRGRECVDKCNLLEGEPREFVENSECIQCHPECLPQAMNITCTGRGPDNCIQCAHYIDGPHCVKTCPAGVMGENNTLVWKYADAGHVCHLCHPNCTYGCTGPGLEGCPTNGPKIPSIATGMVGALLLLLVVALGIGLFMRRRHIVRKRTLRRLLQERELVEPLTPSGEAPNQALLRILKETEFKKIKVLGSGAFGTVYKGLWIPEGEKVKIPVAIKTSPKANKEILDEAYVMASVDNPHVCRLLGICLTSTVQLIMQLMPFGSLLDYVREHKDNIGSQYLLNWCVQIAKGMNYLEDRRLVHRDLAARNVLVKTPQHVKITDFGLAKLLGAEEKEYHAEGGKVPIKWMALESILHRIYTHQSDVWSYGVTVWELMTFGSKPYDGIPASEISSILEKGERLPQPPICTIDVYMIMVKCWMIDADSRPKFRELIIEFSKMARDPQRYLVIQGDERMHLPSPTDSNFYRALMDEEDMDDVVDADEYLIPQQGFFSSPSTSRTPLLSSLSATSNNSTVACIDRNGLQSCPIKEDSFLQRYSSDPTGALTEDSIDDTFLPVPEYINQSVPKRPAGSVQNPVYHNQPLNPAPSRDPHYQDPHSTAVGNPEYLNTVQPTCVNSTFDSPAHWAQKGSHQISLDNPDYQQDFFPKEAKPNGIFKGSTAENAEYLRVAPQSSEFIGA

Turning to `CC(C)Nc1cc(Nc2ccnc(-c3cnn(S(=O)(=O)C4CC4)c3)n2)ncc1C#CC(C)(C)O` [Example 204, 4-(6-((2-(1-(Cyclopropylsulfonyl)-1H-pyrazol-4-yl)pyrimidin-4-yl)amino)-4-(isopropylamino)pyridin-3-yl)-2-methylbut-3-yn-2-ol], the IC50 on EGFR Del19/T790M/C797S (setting [1]) is 22.7 nM; at EGFR wildtype (WT) (setting [2]), 264 nM; at EGFR wildtype (WT) (IC50 WT (nM), 100 μM ATP), more than 10000 nM; against EGFR Del19/C797S (setting [3]) it was 187 nM.

For `CC(C)Nc1cc(Nc2ccnc(-c3cnn(S(=O)(=O)C4CC4)c3)n2)ncc1C#Cc1csc(CF)n1` [Example 200, N^2-(2-(1-(cyclopropylsulfonyl)-1H-pyrazol-4-yl)pyrimidin-4-yl)-5-((2-(fluoromethyl)thiazol-4-yl)ethynyl)-N^4-isopropylpyridine-2,4-diamine], the IC50 at EGFR Del19/T790M/C797S (setting [1]) is 12.6 nM; on EGFR Del19/T790M/C797S (setting [4]) it was 11.3 nM; against EGFR L858R/T790M/C797S (setting [5]), 29.8 nM; on EGFR wildtype (WT) (setting [2]) it was 4100 nM; against EGFR wildtype (WT) (IC50 WT (nM), 100 μM ATP), more than 10000 nM; at EGFR Del19/C797S (setting [6]), 350 nM. This molecule also showed an IC50 against EGFR Del19/C797S (setting [3]) of 1000 nM.

`Cn1cc(C#Cc2cnc(Nc3ccnc(-c4cnn(S(=O)(=O)C5CC5)c4)n3)cc2-c2cnn(C)c2)cn1` [Example 233, 2-(1-(Cyclopropylsulfonyl)-1H-pyrazol-4-yl)-N-(4-(1-methyl-1H-pyrazol-4-yl)-5-((1-methyl-1H-pyrazol-4-yl)ethynyl)pyridin-2-yl)pyrimidin-4-amine]: the IC50 on EGFR Del19/T790M/C797S (setting [7]) is 4.5 nM; on EGFR L858R/T790M/C797S (setting [8]), 15.5 nM; on EGFR wildtype (WT) (setting [9]) it was 1340 nM; on EGFR Del19/C797S (setting [10]) it was 299 nM.

As for `CC(C)Oc1cc(Nc2ccnc(-c3cnn(S(=O)(=O)C4CC4)c3)n2)ncc1C#Cc1cnn(C)c1` [Example 54, 2-(1-(Cyclopropylsulfonyl)-1H-pyrazol-4-yl)-N-(4-isopropoxy-5-((1-methyl-1H-pyrazol-4-yl)ethynyl)pyridin-2-yl)pyrimidin-4-amine], the IC50 at EGFR Del19/T790M/C797S (setting [7]) was found to be 6.1 nM; on EGFR L858R/T790M/C797S (setting [8]) it was 13.2 nM; at EGFR wildtype (WT) (setting [9]) it was 2580 nM; at EGFR Del19/C797S (setting [10]), 138 nM.

Turning to `COCCC#Cc1cnc(Nc2ccnc(-c3cnn(S(=O)(=O)C4CC4)c3)n2)cc1NC(C)C` [Example 22, N^2-(2-(1-(Cyclopropylsulfonyl)-1H-pyrazol-4-yl)pyrimidin-4-yl)-N^4-isopropyl-5-(4-methoxybut-1-yn-1-yl)pyridine-2,4-diamine], the IC50 on EGFR Del19/T790M/C797S (setting [7]) was 2.8 nM; at EGFR L858R/T790M/C797S (setting [8]), 5.4 nM; on EGFR wildtype (WT) (setting [9]), 630 nM; on EGFR Del19/C797S (setting [10]) it was 122 nM.

On to `CN(CCO)c1cc(Nc2ccnc(-c3cnn(S(=O)(=O)C4CC4)c3)n2)ncc1C#Cc1cnn(C)c1` [Example 37, 2-((2-((2-(1-(Cyclopropylsulfonyl)-1H-pyrazol-4-yl)pyrimidin-4-yl)amino)-5-((1-methyl-1H-pyrazol-4-yl)ethynyl)pyridin-4-yl)(methyl)amino)ethan-1-ol], for which the IC50 on EGFR Del19/T790M/C797S (setting [7]) is 20.2 nM; against EGFR wildtype (WT) (IC50 WT (nM), 100 μM ATP), more than 10000 nM; on EGFR wildtype (WT) (setting [9]), 435 nM; at EGFR Del19/C797S (setting [3]), 870 nM.

Take `CC(C)Nc1cc(Nc2ccnc(-c3cnn(S(=O)(=O)C4CC4)c3)n2)ncc1C#Cc1cnn(C)c1` [Example 18, N^2-(2-(1-(Cyclopropylsulfonyl)-1H-pyrazol-4-yl)pyrimidin-4-yl)-N^4-isopropyl-5-((1-methyl-1H-pyrazol-4-yl)ethynyl)pyridine-2,4-diamine]: the IC50 at EGFR Del19/T790M/C797S (setting [4]) is 1.6 nM; on EGFR Del19/T790M/C797S (setting [7]) it was 2.2 nM; on EGFR L858R/T790M/C797S (setting [5]), 1.1 nM; at EGFR L858R/T790M/C797S (setting [8]) it was 3.3 nM; at EGFR wildtype (WT) (IC50 WT (nM), 100 μM ATP), more than 10000 nM; at EGFR wildtype (WT) (setting [9]), 213 nM. The IC50 on EGFR Del19/C797S (setting [3]) came to 47.3 nM; on EGFR Del19/C797S (setting [10]), 35.5 nM.

Consider `CC(C)Nc1cc(Nc2ccnc(-c3cnn(S(=O)(=O)C4CC4)c3)n2)ncc1C#CCCCC(=O)N1CCOCC1` [Example 208, 6-(6-((2-(1-(Cyclopropylsulfonyl)-1H-pyrazol-4-yl)pyrimidin-4-yl)amino)-4-(isopropylamino)pyridin-3-yl)-1-morpholinohex-5-yn-1-one], for which the IC50 on EGFR Del19/T790M/C797S (setting [1]) was 5.1 nM; on EGFR Del19/T790M/C797S (setting [4]) it was 3.5 nM; at EGFR L858R/T790M/C797S (setting [5]), 8.1 nM; on EGFR wildtype (WT) (setting [2]) it was 107 nM; against EGFR wildtype (WT) (IC50 WT (nM), 100 μM ATP) it was more than 10000 nM; at EGFR Del19/C797S (setting [6]), 56 nM. On EGFR Del19/C797S (setting [3]), this molecule had an IC50 of 120 nM.

`CC(C)n1cc(C#Cc2cnc(Nc3ccnc(-c4cnn(S(=O)(=O)C5CC5)c4)n3)cc2-c2cnn(C3CC3)c2)cn1` [Example 236, N-(4-(1-cyclopropyl-1H-pyrazol-4-yl)-5-((1-isopropyl-1H-pyrazol-4-yl)ethynyl)pyridin-2-yl)-2-(1-(cyclopropylsulfonyl)-1H-pyrazol-4-yl)pyrimidin-4-amine]: the IC50 was 11.3 nM on EGFR Del19/T790M/C797S (setting [7]), 45.3 nM at EGFR L858R/T790M/C797S (setting [8]) and 359 nM at EGFR Del19/C797S (setting [10]).

For the molecule `CCC(C)Oc1cc(Nc2ccnc(-c3cnn(S(=O)(=O)C4CC4)c3)n2)ncc1C#Cc1cnn(C(C)C)c1` (stereo not shown) [Example 57, N-(4-(sec-Butoxy)-5-((1-isopropyl-1H-pyrazol-4-yl)ethynyl)pyridin-2-yl)-2-(1-(cyclopropylsulfonyl)-1H-pyrazol-4-yl)pyrimidin-4-amine], the IC50 at EGFR Del19/T790M/C797S (setting [7]) is 13.9 nM; on EGFR L858R/T790M/C797S (setting [8]), 26.1 nM; at EGFR Del19/C797S (setting [10]), 493 nM.

Turning to `CC(C)Nc1cc(Nc2ccnc(-c3cnn(S(=O)(=O)C4CC4)c3)n2)ncc1C#CC1CCOCC1` [Example 206, N^2-(2-(1-(Cyclopropylsulfonyl)-1H-pyrazol-4-yl)pyrimidin-4-yl)-N^4-isopropyl-5-((tetrahydro-2H-pyran-4-yl)ethynyl)pyridine-2,4-diamine], the IC50 on EGFR Del19/T790M/C797S (setting [1]) amounted to 3.5 nM; at EGFR wildtype (WT) (setting [2]), 201 nM; on EGFR Del19/C797S (setting [6]) it was 69.1 nM.

For `CN(CCO)c1cc(Nc2ccnc(-c3cnn(S(=O)(=O)C4CC4)c3)n2)ncc1C#Cc1cnn(CCF)c1` [Example 38, 2-((2-((2-(1-(Cyclopropylsulfonyl)-1H-pyrazol-4-yl)pyrimidin-4-yl)amino)-5-((1-(2-fluoroethyl)-1H-pyrazol-4-yl)ethynyl)pyridin-4-yl)(methyl)amino)ethan-1-ol], the IC50 on EGFR Del19/T790M/C797S (setting [7]) is 17.6 nM; against EGFR wildtype (WT) (IC50 WT (nM), 100 μM ATP) it was more than 10000 nM; on EGFR wildtype (WT) (setting [9]) it was 368 nM; against EGFR Del19/C797S (setting [3]) it was 464 nM.

In the case of `CCS(=O)(=O)N1CCN(c2cc(Nc3ccnc(-c4cnn(S(=O)(=O)C5CC5)c4)n3)ncc2C#Cc2cnn(C)c2)CC1` [Example 3, 2-(1-(Cyclopropylsulfonyl)-1H-pyrazol-4-yl)-N-(4-(4-(ethylsulfonyl)piperazin-1-yl)-5-((1-methyl-1H-pyrazol-4-yl)ethynyl)pyridin-2-yl)pyrimidin-4-amine], the IC50 at EGFR Del19/T790M/C797S (setting [7]) was 6.6 nM; on EGFR wildtype (WT) (setting [9]), 3830 nM; on EGFR Del19/C797S (setting [10]) it was 240 nM.

`CC(C)Nc1cc(Nc2ccnc(-c3cnn(S(=O)(=O)C4CC4)c3)n2)ncc1C#Cc1csc(C2CC2)n1` [Example 205, N^2-(2-(1-(Cyclopropylsulfonyl)-1H-pyrazol-4-yl)pyrimidin-4-yl)-5-((2-cyclopropylthiazol-4-yl)ethynyl)-N^4-isopropylpyridine-2,4-diamine]: the IC50 on EGFR Del19/T790M/C797S (setting [1]) was 18.3 nM; at EGFR wildtype (WT) (setting [2]), 587 nM; at EGFR Del19/C797S (setting [6]) it was 265 nM.

Source of the values: patent publication US11981658B2, “Substituted aminopyridine compounds as EGFR inhibitors” (YUHAN CORPORATION, priority 2021, dated 2024).
